Results taken from USRE39485E1 (Aesgen, Inc., priority 1993, dated 2007).
“And” between values parts separate entries of the source, which are not always exact repeats. Equal entries are not always repeated.

Experiments:
[1] = 0.57 g/kg/day in parenteral nutrition solutions for 5 days; cited from earlier work
[2] = test system: patients experiencing mucositis of the oropharynx following a course of chemotherapy; test: Oral glutamine swish and swallow trial in patients with chemotherapy induced oral mucositis; assay type: in vivo, human; set-up: key to Maximum Grade of Mucositis: 0: no mucositis; 1: painful mucositis not necessitating a change in oral intake; 2A: painful mucositis restricting intake to soft foods; 2B: painful mucositis restricting oral intake to liquids; 3: mucositis preventing oral intake
From the text: Patients experiencing mucositis of the oropharynx following a course of chemotherapy were offered the opportunity to enter this study if no other clinical parameters precluded receiving the same chemotherapy doses during the next course of treatment. […] Other carriers, flavor enhancers, gums, and suspending agents known in the art may be employed. The suspension was stored in a refrigerator during use for a maximum of 1 month. […] The severity of mucositis was graded as: 0, no mucositis; 1, painful mucositis not necessitating a change in oral intake; 2A, painful mucositis restricting intake to soft foods; 2B, painful mucositis restricting oral intake to liquids; and 3, mucositis preventing oral intake (CALGB criteria). Maximum grade of mucositis and total number of days of mucositis were compared by the paired t-test. All patients gave written informed consent, and the trial was approved by the Institutional Review Board of the University of Minnesota. Ten adults, 5 men and 5 women, were entered in the study. […] One patient with AIDS and Kaposi's sarcoma was treated with doxorubicin by constant iv infusion over 5 days with bolus DTIC and vincristine. One patient with breast cancer was treated with doxorubicin, cyclophosphamide, and 5-FU, iv bolus.

[3] = test system: rats given abdominal radiotherapy; conditions: glutamine group vs glycine enriched group; cited from earlier work
[4] = test system: animals given methotrexate; conditions: administered after methotrexate; cited from earlier work
[5] = test system: adults undergoing allogeneic bone marrow transplantation for hematologic malignancies; conditions: cited from earlier work
[6] = oral dose of 0.3 g/kg; cited from earlier work
[7] = test system: rats treated with methotrexate; conditions: glutamine supplementation of an elemental diet; cited from earlier work
[8] = parenteral glutamine supplementation vs none

Question: What does the source list for `NC(=O)CC[C@H](N)C(=O)O` [glutamine, L-glutamine]?
Answer: tolerability [1]: well tolerated; Subjective Improvement of Mucositis ([2]; Chemotherapy + Glutamine 2 gm/m^2 BID vs previous identical chemotherapy without glutamine, one line per patient (1-10)): Yes (9×) and No; Maximum Grade of Mucositis ([2]; chemotherapy + glutamine, L-glutamine 2 g/m^2 swish and swallow twice daily, one line per patient (1-10), CALGB criteria): 1 (7×) and 0 (3×); toxicity of the glutamine ([2]; oral glutamine 2 g/m^2 twice daily, ambulatory patients): absence of any detectable toxicity; patients in whom the maximum grade of mucositis remained the same (grade 1) ([2]; with glutamine supplementation): 2/10; patients in whom the total number of days of mucositis decreased ([2]; with glutamine supplementation): 9/10; median score of maximum grade of mucositis ([2]; with glutamine supplementation (2 without), p=0.001): 1; total number of days of mucositis, mean (SEM) ([2]; with glutamine supplementation (10.1±1.2 without), p=0.001): 3.8 ± 1.0 days; patients in whom the maximum grade of mucositis decreased ([2]; with glutamine supplementation vs previous course, p=0.001): 8/10; patients in whom glutamine allowed chemotherapy doses that would otherwise have had to be reduced due to mucositis ([2]; with the addition of glutamine): 8/10; patients who felt that the mucositis was less severe ([2]; with the addition of glutamine): Nine of the 10; mucosal structure [3]: more normal mucosal structure; survival rate [3]: higher survival rate; survival rate, enteral vs parenteral supplementation [4]: better survival rate; severity of oral mucositis (stomatitis) ([5]; high dosage of intravenous glutamine vs no glutamine): no difference; episodes of clinical infections [5, 8]: fewer episodes of clinical infections; median hospitalization [5, 8]: shorter median hospitalization; nitrogen balance [5, 8]: better nitrogen balance; clinical toxicity or measurable toxic metabolites (ammonia or glutamate) [6]: no evidence of clinical toxicity or generation of measurable toxic metabolites; incidence of bacteremia [7]: lower incidence of bacteremia; mortality [7]: less mortaility; mucosal weight of the jejunum and colon [7]: increased mucosal weight of the jejunum and colon; survival [7]: longer survival; weight loss [7]: less weight loss
